# Patent US20090317807A1, “Primers for Use in Detecting Metallo-Beta-Lactamases” (priority 2006, published 2009)
# Legend:
# [1] = tested on: Pseudomonas aeruginosa (IMP-18); experiment: Broth microdilution antibiotic susceptibility (MicroScan dehydrated panels, NCCLS criteria); format: cell-based; settings: for MIC: Pseudomonas aeruginosa, read-out: Microdilution MICs
# Procedure: The carbapenem-resistant P. aeruginosa isolate investigated in this study was recovered from the tracheal aspirate of a motorcycle accident victim in the southwestern United States.
# The isolate was identified by the Phoenix system (Becton Dickinson Diagnostic Systems, Sparks, Md.). Antibiotic susceptibility was determined by broth microdilution method with investigational dehydrated panels provided by Dade Behring MicroScan (Sacramento, Calif.) according to the manufacturer's recommendations and interpreted according to National Committee for Clinical Laboratory Standards (NCCLS) criteria (National Committee for Clinical Laboratory Standards, “Performance Standards for Antimicrobial Susceptibility Testing, Fourteenth informational supplement 24, Wayne, Pa. (2004)).
# [2] = tested on: Pseudomonas aeruginosa (IMP-18); experiment: Etest metallo-beta-lactamase strip (imipenem with/without EDTA); format: cell-based
# Text: Metallo-beta-lactamase production was phenotypically investigated by using the Etest metallo-beta-lactamase strip (AB BIODISK, Solna, Sweden).
# [3] = carbapenem-resistant P. aeruginosa clinical isolate producing IMP-18, broth microdilution
Compound,"MIC [1, 3]",further results
NCC[C@H](O)C(=O)N[C@@H]1C[C@H](N)[C@@H](O[C@H]2O[C@H](CN)[C@@H](O)[C@H](O)[C@H]2O)[C@H](O)[C@H]1O[C@H]1O[C@H](CO)[C@@H](O)[C@H](N)[C@H]1O [Amikacin],64 µg/mL,–
C[C@H]1[C@H](NC(=O)/C(=N\OC(C)(C)C(=O)O)c2csc(N)n2)C(=O)N1S(=O)(=O)O [Aztreonam],32 µg/mL,–
CO/N=C(\C(=O)N[C@@H]1C(=O)N2C(C(=O)[O-])=C(C[N+]3(C)CCCC3)CS[C@H]12)c1csc(N)n1 [Cefepime],> 64 µg/mL,–
CC(C)(O/N=C(\C(=O)N[C@@H]1C(=O)N2C(C(=O)[O-])=C(C[n+]3ccccc3)CS[C@H]12)c1csc(N)n1)C(=O)O [Ceftazidime],> 64 µg/mL,–
CO/N=C(\C(=O)N[C@@H]1C(=O)N2C(C(=O)O)=C(CSc3nc(=O)c(=O)[nH]n3C)CS[C@H]12)c1csc(N)n1 [Ceftriaxone],> 64 µg/mL,–
C[C@@H](O)[C@H]1C(=O)N2C(C(=O)O)=C(SCCN=CN)C[C@H]12 [Imipenem],64 µg/mL,"MIC ([2]; Pseudomonas aeruginosa, without EDTA): ≥ 256 µg/mL; MIC of imipenem by Etest in the presence of EDTA ([2]; in the presence of EDTA): 8 µg/mL; fold reduction in the MIC of imipenem in the presence of EDTA ([2]; with vs without EDTA): ≥ 32 fold"
C[C@H]1COc2c(N3CCN(C)CC3)c(F)cc3c(=O)c(C(=O)O)cn1c23 [Levofloxacin],> 16 µg/mL,–
CN(C)c1ccc(O)c2c1C[C@H]1C[C@H]3[C@H](N(C)C)C(O)=C(C(N)=O)C(=O)[C@@]3(O)C(O)=C1C2=O [Minocycline],> 128 µg/mL,–
CN(C)c1cc(NC(=O)CNC(C)(C)C)c(O)c2c1C[C@H]1C[C@H]3[C@H](N(C)C)C(O)=C(C(N)=O)C(=O)[C@@]3(O)C(O)=C1C2=O [Tigecycline],–,MIC [1]: 32 µg/mL
Gentamicin,–,"Microdilution MICs [1, 3]: >32 µg/mL"
Polymyxin B,–,"Microdilution MICs [1, 3]: 4 µg/mL"
